Literature values in patent US20110046156A1, “TREATMENT OF HEARING AND BALANCE IMPAIRMENTS WITH REDOX-ACTIVE THERAPEUTICS” (priority 2009, published 2011).

patients displaying some vestibular impairment (2 grams daily for 60 to 120 days): ~75%
SMILES: [H]/N=C(/N)N[C@H]1[C@H](O)[C@@H](O)[C@H](O[C@@H]2O[C@@H](C)[C@](O)(C=O)[C@H]2O[C@@H]2O[C@@H](CO)[C@H](O)[C@@H](O)[C@@H]2NC)[C@@H](N/C(N)=N\[H])[C@@H]1O [streptomycin]
incidence of vestibular impairment (1 gram per day): 25%
